Laboratory results published in ChEMBL document CHEMBL1152058, “Configurational variants of hydroxyphenylkainoid: their potent depolarizing activities in the rat central nervous system” (1992).

Organism: Rattus norvegicus
Test: Compound was evaluated for its depolarizing activity in the isolated rat spinal cord and the relative potency was determined
Type: functional

Which Relative potency does the source give for `O=C(O)C[C@@H]1[C@@H](C(=O)O)NC[C@H]1c1ccccc1O` here?
The Relative potency was 0.5.

With `C=C(C)[C@H]1CN[C@H](C(=O)O)[C@H]1CC(=O)O` [KAINIC ACID] as the compound, how does the Relative potency read?
Its Relative potency is 150.

How did the Relative potency turn out when `O=C(O)C[C@@H]1[C@@H](C(=O)O)NC[C@@H]1c1ccccc1O` was run?
The Relative potency was 300.

For `N[C@@H](CCC(=O)O)C(=O)O` [GLUTAMIC ACID], which Relative potency is on record?
Its Relative potency is 1.

How did the Relative potency turn out when `O=C(O)C[C@H]1[C@@H](C(=O)O)NC[C@H]1c1ccccc1O` was run?
Its Relative potency is 0.5.

`O=C(O)C[C@H]1[C@@H](C(=O)O)NC[C@@H]1c1ccccc1O` was tested. Which Relative potency did it give?
Its Relative potency is 2.
